Structures are written as SMILES.

As a reminder, the melting point is the temperature of the solid-liquid transition. In turn, `C#CCN1CC[C@H](O[Si](C)(C)C(C)(C)C)C1=O` registered a melting point of 35 to 36 °C.
As for `CC(C)(C)OC(=O)N1CCN(C2CCN(c3ccc(N)cc3C#N)CC2)CC1`, the figure is 172 °C; as for `CCNc1cn(-c2cncc(F)c2)nc1C`, 85 to 86 °C; as for `COCOc1ccc(C(C(c2ccccc2)c2ccc(F)cc2)C(F)(F)F)cc1` (configuration not stated), 85 to 88 °C.
`CC(=O)Nc1nc(Cl)c2c(ncn2COC(COC(C)C)COC(C)C)n1` returned a melting point of 73 to 75 °C.
Next, `COc1cccc2c1C(NC1=Nc3ccc(Nc4nnc(C)o4)cc3CO1)CC2` (configuration not stated): 162 °C; `Cc1nnc(-c2ccc3occ(-c4ccccc4C(F)(F)F)c3c2)o1`: 159 to 160 °C.
Next, `COc1ccccc1NC(=O)Nc1nc(Oc2ccc3ccccc3c2)nc(N(CCC(=O)O)Cc2ccc(F)cc2)n1`: 211 to 217 °C; `O=C(Nc1ccc2cc(CN3CCCC3)cnc2c1F)c1ccc(-c2ccc(F)cc2)cc1`: 178 °C.
For the molecule `FCCCCNc1cn(-c2cccnc2)nc1Cl`, the melting point lay in the range of 82 to 83 °C.
Molecule `CNC(=O)Nc1snc(S(C)=O)c1C(N)=O` (configuration not stated) had a melting point above 355 °C.
With `COC(=O)C(C)(C)C(Cc1ccc(OC)cc1)N(C)S(=O)(=O)c1ccc(C)cc1` (configuration not stated), the melting point was in the range of 132 to 134 °C.
Next, `CCCc1nc(C(C)(C)O)c(C(=O)O)n1Cc1ccc(-c2ccccc2C(=O)C(=O)O)cc1`: 183 to 185 °C.
For the molecule `CC(O)(c1cccc(C(F)(F)F)c1)c1cc(Cl)ccc1O` (configuration not stated), the melting point turned out to be 115 °C.
For `COC(=O)c1cccc(-c2c(C)c(NC(=O)CC(C)(C)C)c(C)c3c2OCC3c2ccc(C(C)C)cc2)c1` (configuration not stated), the melting point is 206 to 208 °C.
Regarding `Cc1ccc(-c2csc(C(=O)O)n2)cc1`, the melting point was in the range of 112 to 114 °C.
As for `Cc1ccc(-c2c(-c3ccc(S(N)(=O)=O)cc3)cnn(-c3ccc(F)cc3)c2=O)cc1F`, the figure is 187 to 188 °C; as for `CCC(C)(C)C(=O)NNc1cc(NC(=O)CC(C)(C)C)cc(NC(=O)CC(C)(C)C)c1`, 332 to 334 °C; as for `CC1CCCCN1C(=O)C=Cc1ccc(F)cc1` (configuration not stated), 114 to 116 °C.
The molecule `C[C@@H]1CN(c2cc3c(c(N)c2F)c(=O)c(C(=O)O)cn3C2CC2)C[C@H](C)N1` returned a melting point of 253 to 254 °C.
As for `COc1cc(-c2cc(C)no2)cc2oc(=O)c(C)c(C)c12`, the figure is 148 to 150 °C; as for `CCCc1nc2c(N)nc3ccccc3c2n1CCCCNC(=O)c1ccccc1`, 173 to 174 °C; as for `CC(C)(C)c1nnc(N=C=O)s1`, 261 to 263 °C.
Next, `CCc1c(C(=O)C(N)=O)c2c([N+](=O)[O-])cccc2n1Cc1ccccc1`: 207 to 208 °C; `COc1cc2c(c(Cl)c1Cl)SC(c1ccccc1)C2=O` (configuration not stated): 228 to 229 °C; `Cc1ccc(Cn2c(C)cc(C)c(C#N)c2=O)cc1`: 178 to 181 °C.
Next, `N=C(N)NC(=O)c1nc(F)c(N)nc1N`: 233 °C; `COc1ccc(C2=CC(C3CCN(c4ncnc5c4cnn5C)CC3)C(=O)C3CC=CCC23)cc1OC` (configuration not stated): 193 to 194 °C.
Turning to `Cc1ccc(S(=O)(=O)N(C)NC(=O)c2c(F)cccc2Cl)cc1`, the melting point was in the range of 135 to 136 °C.
Consider `CN(CCNC(=O)NCCSCc1csc(NC(=N)N)n1)CCN(Cc1ccc(F)cc1)c1ccccn1`, for which the melting point came out at 132 °C.
As for `CC(Sc1ccccc1)n1cc(C2=C(c3cn(C(C)Sc4ccccc4)c4ccccc34)C(=O)NC2=O)c2ccccc21` (configuration not stated), the figure is 102 to 105 °C.
The molecule `Cc1c[nH]c2c([N+](=O)[O-])cccc2c1=O` showed a melting point of 235 to 243 °C.
Next, `CN1CC(=O)N(c2ccc(C(C)(C)C)cc2)C1=S`: 156 to 158 °C; `CCN(Cc1cc(C(C)=O)ccc1NC(C)=O)C1CCCCC1`: 98 to 100 °C.
Consider `CCCc1c(OCc2ccc(C(=O)NCCCCc3cccnc3)c(OCC)c2)ccc(C(C)=O)c1O`, for which the melting point was 92 to 93 °C.
As for `CCCc1nc(SC(F)F)c(C(=O)O)n1Cc1ccc(-c2ccccc2S(=O)(=O)NC(=O)NCCC2=CCCCC2)cc1`, the figure is 114 °C.
For the molecule `CCCCc1ccc(OC)c(-c2csc(NC(=O)c3ccc(C(=O)N4CCC(N5CCC[C@H]5CO)CC4)cc3)n2)c1`, the melting point turned out to be 199 °C.
Next, `COC(=O)c1cc(C(=O)N2CCC(CO)CC2)c2cc(Cc3ccc(F)cc3)cnc2c1O`: 161 to 162 °C.
Molecule `Cc1ccc(-n2c(-c3ccccc3)ccc2-c2ccccc2)cc1` displayed a melting point of 207 to 208 °C.
`CC(C#N)(Cn1c(C(F)(F)F)nc2ccccc21)NC(=O)c1ccc(OC(F)(F)F)cc1` (configuration not stated) yielded a melting point of 194 °C.
As for `CS(=O)(=O)N[C@@H]1CCCC[C@H]1Nc1nc(Nc2cc(F)cc3c2OCCNC3=O)ncc1Cl`, the figure is 177 to 181 °C.
Molecule `O=C(Nc1n[nH]c(=S)s1)NC(Cc1ccccc1)C(=O)NCc1ccccc1` (configuration not stated) registered a melting point of 167 to 170 °C.
As for `C(=C\c1nc(COc2ccc(CCCn3cnc(-c4ccccc4)c3-c3ccccc3)cc2)co1)/c1ccccc1`, the figure is 137 to 138 °C.
Molecule `CC1=C(C(=O)Nc2cc(C(=O)OC(C)C)ccc2F)SCCO1` gave a melting point of 132 to 135 °C.
The molecule `CCOC(=O)c1cc(O)cc(OCC)c1` displayed a melting point of 62 to 63 °C.
As for `c1ccc(Cc2c[nH]c(-c3ncc[nH]3)n2)cc1`, the melting point fell in the range of 138 to 140 °C.
As to `Cc1ccc(C(=O)NCC(O)CO)cc1-n1c(C)cc(OCc2ccccc2CNC(=O)Nc2cc(C(C)(C)C)nn2-c2ccc(O)c(Cl)c2)c(Cl)c1=O` (configuration not stated), the melting point lay within 173 to 175 °C.
Next, `NCC1CCN(CCc2ccc(O)cc2)CC1`: 166 to 168 °C; `COc1cc(C(C)=O)ccc1OCCCCN1C2CCC1CC(c1n[nH]c3cc(F)ccc13)C2` (configuration not stated): 148 to 149 °C; `NS(=O)(=O)c1nc2ccc(O)cc2s1`: 209 °C.
Molecule `O=C(O)/C=C/c1ccc(Oc2c(-c3ccccc3)c(C3CC3)cc3cc(O)ccc23)cc1` came in with a melting point of 242 to 243 °C.
Molecule `Nc1sc2c(c1C(=O)c1cccs1)CCC2` had a melting point of 133 to 134 °C.
`COCOc1c(NC(=O)Nc2ccccc2)cc(OC)cc1C(C)(C)C` registered a melting point of 121 to 123 °C.
As to `N[C@@H](Cc1ccccc1)C(O)(c1ccccc1)c1ccccc1`, the melting point was 141 to 142 °C.
For `Cc1nnc(COc2ccc(NC(=O)/C=C/c3cnn(C)c3-c3ccc(F)cc3)cc2)o1`, the melting point lay in the range of 117 to 118 °C.
As for `COc1ccc2nccc(CCCC3CCCNC3)c2c1` (configuration not stated), the figure is 110 °C; as for `CC1(CCc2ccc(O)c(C(C)(C)C)c2)NC(=O)NC1=O` (configuration not stated), 246 °C.
As for `O=C1c2ccccc2C(=O)C1(O)c1cc(F)ccc1O`, the melting point lay within 189 to 193 °C.
As for `O=C1Cc2cccc(S(=O)c3ccccc3Cl)c2N1` (configuration not stated), the figure is 243 to 245 °C.
As for `O=C1c2ccccc2C2(CCCC2)C(=O)N1CCO`, the figure is 76 to 77 °C.
Turning to `CN(C)C1(c2ccc(F)cc2)CCC2(CC1)NCCc1c2[nH]c2ccccc12` (configuration not stated), the melting point was in the range of 249 to 250 °C.
`O=C(NCc1ccc(Cl)cc1)c1nnc2ccc(CO)cc2c1O`: the melting point is 296 to 298 °C.
`c1csc(-c2ccc(-c3cccs3)c3nsnc23)c1` displayed a melting point of 121 to 122 °C.
With `O=C(Nc1cccc(S(=O)(=O)NCc2ccccn2)c1)c1cnn2c(C(F)F)cc(-c3ccc(C(F)(F)F)cc3)nc12`, the melting point was determined as 208 °C.
As to `CCCCN(Cc1ccc(-c2ccccc2S(=O)(=O)NC(=O)c2ccccc2Cl)cc1)C(=O)Oc1ccccc1C(F)(F)F`, the melting point is above 150 °C.
For `CC(=O)Nn1c(=S)[nH]c2cc(C(=O)O)ccc21`, the melting point is 334 to 338 °C.
For the molecule `Clc1ccc2c(c1)CCC(c1ccccc1)S2` (configuration not stated), the melting point was 91 to 93 °C.
As for `O=C1NCC(c2ccsc2)SCC1N1C(=O)c2ccccc2C1=O` (configuration not stated), the figure is 243 to 245 °C; as for `CS(=O)(=O)c1ccc2ccn(C3CCN(CCc4ccc(F)cc4)CC3)c2c1`, 133 to 135 °C; as for `CONC(=O)Nc1cc(C(C)(C)C)on1`, 145 to 148 °C.
Next, `NS(=O)(=O)c1ccc(NC(=O)CNc2ccccc2)cc1Cl`: 192 to 194 °C; `Clc1nc(Cl)c2c(n1)CCC2`: 77 to 79 °C; `Cc1ccc(-c2ccc(Cl)c(C(=O)NCC34CC5CC(CC(C5)C3)C4)c2)c(C(=O)O)n1`: 125 to 130 °C.
As for `COc1cccc(OC)c1C(=O)P(CC(C)C)C(=O)c1c(OC)cccc1OC`, the figure is 138 to 140 °C.
`Cc1cccc2c(C(=O)O)cn(C)c12` registered a melting point of 243 °C.
The molecule `O=C(Nc1ccc(S(=O)(=O)C(F)(F)F)cc1Cl)c1cc(-c2ccc(F)cc2F)cc(C23CC4CC(CC(C4)C2)C3)c1O` had a melting point of 177 to 178 °C.
Molecule `CCOC(=O)c1cc(=O)c2ccc([N+](=O)[O-])c(C)c2o1` yielded a melting point of 120 °C.
For `Cc1cc(N)n(C(CCc2ccccc2)=NO)n1`, the melting point lay in the range of 138 to 140 °C.
Turning to `O=c1oc(-c2ccccc2)cc(O)c1Sc1cccc(Cl)c1`, the melting point is 181 to 182 °C.
The molecule `c1cc(N=Nc2ccncc2)ccn1` returned a melting point of 87 to 89 °C.
Next, `COC(=O)C=C(Nc1coc2ccc(Cl)cc2c1=O)C(=O)OC`: 158 to 160 °C; `O=S(=O)(CCCl)CCC(F)(F)C(F)(F)C(F)(F)C(F)(F)C(F)(F)C(F)(F)F`: 104 to 106 °C; `Cc1oc(-c2ccccc2)nc1CCOc1ccc(/C=C/C=C/CO)cc1`: 132 to 133 °C.
Regarding `CCOC(=O)c1cccc(NC(=O)N2CCC(CNC[C@H](O)COc3cccc4[nH]c5ccccc5c34)CC2)c1`, the melting point stood at 160 °C.
Turning to `Cn1nc(C(F)F)[nH]c1=O`, the melting point came out at 141 °C.
The molecule `C=CCc1cc(C(=O)c2ccccc2)c(O)cc1OCCCCC#N` showed a melting point of 60 to 62 °C.
As for `COCCOCC(=O)N1CCC(Oc2cc3ncnc(Nc4cccc(Cl)c4F)c3cc2OC)CC1`, the figure is 110 to 111 °C.

The record behind these values is a melting point compilation (Tetko et al.; mined from patent text by program, amines drawn as free bases though some values may be those of a salt).
